# Test results: ChEMBL document CHEMBL1201862, “PubChem BioAssay data set” (2004)
# Active and inactive are the calls of the source.
# Tests used:
# [1] = molecular target: Potassium voltage-gated channel subfamily KQT member 2 (Rattus norvegicus, UniProt O88943); test: blockers of KCNQ2 channel current – cell-based, automated electrophysiology, set II, rat KCNQ2, dose response (AID 588637); assay type: functional
# [2] = inhibition of ARNT PAS-B/TACC3 complex formation – biochemical, AlphaScreen, cherry-picked samples, confirmation (AID 651703); assay type: functional, Homo sapiens;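 further: His-tagged ARNT PAS-B domain paired with GST-TACC3 E629A dimer coactivator fragment; potency of inhibitors that break up the complex and lower AlphaScreen signal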
# [3] = molecular target: Hepatocyte nuclear factor 4-alpha (Homo sapiens, UniProt P41235); assay type: functional, cell-based;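 further: biochemical luminescence-based dose-response counterscreen measuring inhibition of HNF4 dimerization, run alongside a screen for blockers of ABHD5–perilipin-5 interaction; split luciferase complementation of HNF4 fusion proteins in cell lysate measuring dimerization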
# Beta-lactamase [4] = molecular target: Beta-lactamase (Pseudomonas aeruginosa, UniProt Q79MP6);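 further: biochemical dose-response test of metallo-beta-lactamase enzyme inhibition, read out by epi-absorbance; purified recombinant IMP-1 metallo-beta-lactamase with nitrocefin as substrate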
# Beta-lactamase [5] = molecular target: Beta-lactamase (Salmonella choleraesuis (strain SC-B67), UniProt Q5J463)
# ORF 73 = molecular target: T1, ORF 73 (Human herpesvirus 8, UniProt O40947); test: KSHV LANA DNA-binding disruption – biochemical, fluorescence polarization, cherry-picked samples, dose response (AID 504725); set-up: species or system Human gammaherpesvirus 8;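 further: fluorescence polarization of a labeled DNA duplex reporting LANA DNA binding; potency is for inhibitors that block LANA binding to the DNA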
# T1 sequence (O40947 whole entry): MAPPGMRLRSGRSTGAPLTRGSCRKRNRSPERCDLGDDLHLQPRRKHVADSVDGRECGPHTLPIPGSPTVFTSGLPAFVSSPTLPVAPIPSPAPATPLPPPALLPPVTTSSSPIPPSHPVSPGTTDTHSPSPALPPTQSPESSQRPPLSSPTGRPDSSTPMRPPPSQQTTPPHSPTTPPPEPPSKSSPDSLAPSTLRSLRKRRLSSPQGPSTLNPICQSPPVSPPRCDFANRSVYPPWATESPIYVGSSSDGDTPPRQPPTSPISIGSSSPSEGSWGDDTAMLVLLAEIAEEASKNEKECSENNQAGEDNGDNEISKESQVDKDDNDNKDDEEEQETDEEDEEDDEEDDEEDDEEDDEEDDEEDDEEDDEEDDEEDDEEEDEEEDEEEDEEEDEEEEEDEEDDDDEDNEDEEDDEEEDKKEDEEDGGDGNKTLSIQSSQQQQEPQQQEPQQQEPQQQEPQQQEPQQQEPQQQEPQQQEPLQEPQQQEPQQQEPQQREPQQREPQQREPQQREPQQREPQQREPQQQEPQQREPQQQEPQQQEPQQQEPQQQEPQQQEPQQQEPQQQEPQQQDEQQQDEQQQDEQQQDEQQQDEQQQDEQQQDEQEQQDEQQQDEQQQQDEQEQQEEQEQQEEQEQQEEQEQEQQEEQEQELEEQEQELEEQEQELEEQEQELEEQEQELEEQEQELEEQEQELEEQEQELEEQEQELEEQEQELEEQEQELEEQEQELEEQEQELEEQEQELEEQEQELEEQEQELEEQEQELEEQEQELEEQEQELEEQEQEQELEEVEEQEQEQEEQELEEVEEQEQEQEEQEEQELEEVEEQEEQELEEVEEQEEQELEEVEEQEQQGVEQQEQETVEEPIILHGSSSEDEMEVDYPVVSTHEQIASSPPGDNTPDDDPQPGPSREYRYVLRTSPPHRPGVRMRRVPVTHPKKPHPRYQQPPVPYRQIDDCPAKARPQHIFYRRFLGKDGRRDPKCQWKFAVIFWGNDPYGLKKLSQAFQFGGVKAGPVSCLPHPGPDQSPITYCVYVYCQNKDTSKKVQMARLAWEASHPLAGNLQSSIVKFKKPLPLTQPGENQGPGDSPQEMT
# [6] = molecular target: UDP-galactopyranose mutase (Mycobacterium tuberculosis, UniProt P9WIQ1); test: Inhibitors of Mycobacterium tuberculosis UDP-galactopyranose mutase (UGM) enzyme Measured in Biochemical System Using Plate Reader - 2105-02_Inhibitor_Dose_CherryPick_Activity. [Related pubchem assays (depositor defined):AID504439]
# Keap1/Nrf2 = Keap1/Nrf2 (Homo sapiens, UniProt Q14145); test: disruptors of Keap1 binding to Nrf2 peptide – biochemical, fluorescence polarization, cherry-picked samples, dose response (AID 588683)
# [7] = molecular target: T2, Probable nicotinate-nucleotide adenylyltransferase (Staphylococcus aureus (strain N315), UniProt P65502); assay type: functional, Staphylococcus aureus subsp. aureus N315;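 on IC50 Mean: confirmatory dose-response retesting of NadD inhibitor hits first found in an ultra-high-throughput screen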
# T2 sequence (P65502 whole entry): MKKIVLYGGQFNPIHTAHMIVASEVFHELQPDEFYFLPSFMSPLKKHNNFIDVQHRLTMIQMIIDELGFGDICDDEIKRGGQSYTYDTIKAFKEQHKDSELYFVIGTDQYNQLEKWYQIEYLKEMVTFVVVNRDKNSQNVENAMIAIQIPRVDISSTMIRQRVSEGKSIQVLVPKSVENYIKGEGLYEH
# [8] = molecular target: T2, Probable nicotinate-nucleotide adenylyltransferase; assay type: functional, Staphylococcus aureus subsp. aureus N315; settings: read-out: IC50_Mean
# [9] = molecular target: NAD-dependent protein deacylase sirtuin-5, mitochondrial (Homo sapiens, UniProt Q9NXA8); test: sirtuin-5 deacylation blockers, concentration series – biochemical, fluorescence imaging, cherry-pick, set 5, dose response (AID 720591);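 further: desuccinylation of succinyl peptide AMC substrate read as fluorescence after trypsin release; potency of inhibitors that lower fluorescence and may act on trypsin instead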
# Chain of NAD-dependent protein deacylase sirtuin-5, mitochondrial (Q9NXA8 whole entry, the tested form may be a part): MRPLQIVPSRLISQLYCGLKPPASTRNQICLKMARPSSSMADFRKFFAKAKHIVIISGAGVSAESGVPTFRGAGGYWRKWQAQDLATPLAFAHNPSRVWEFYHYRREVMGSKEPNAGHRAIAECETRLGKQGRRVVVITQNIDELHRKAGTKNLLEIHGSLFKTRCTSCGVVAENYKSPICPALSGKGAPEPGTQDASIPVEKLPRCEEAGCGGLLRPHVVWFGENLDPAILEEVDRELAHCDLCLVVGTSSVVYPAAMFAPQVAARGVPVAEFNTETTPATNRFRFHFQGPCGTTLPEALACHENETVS
# [10] = molecular target: T3, Sentrin-specific protease 1 (Homo sapiens, UniProt Q9P0U3); test: SENP1 catalytic domain blockers, concentration series – biochemical, kinetic FRET, dose response (AID 651697); assay type: functional; settings: read-out: IC50_Mean
# T3 sequence (Q9P0U3 whole entry, the tested form may be a part): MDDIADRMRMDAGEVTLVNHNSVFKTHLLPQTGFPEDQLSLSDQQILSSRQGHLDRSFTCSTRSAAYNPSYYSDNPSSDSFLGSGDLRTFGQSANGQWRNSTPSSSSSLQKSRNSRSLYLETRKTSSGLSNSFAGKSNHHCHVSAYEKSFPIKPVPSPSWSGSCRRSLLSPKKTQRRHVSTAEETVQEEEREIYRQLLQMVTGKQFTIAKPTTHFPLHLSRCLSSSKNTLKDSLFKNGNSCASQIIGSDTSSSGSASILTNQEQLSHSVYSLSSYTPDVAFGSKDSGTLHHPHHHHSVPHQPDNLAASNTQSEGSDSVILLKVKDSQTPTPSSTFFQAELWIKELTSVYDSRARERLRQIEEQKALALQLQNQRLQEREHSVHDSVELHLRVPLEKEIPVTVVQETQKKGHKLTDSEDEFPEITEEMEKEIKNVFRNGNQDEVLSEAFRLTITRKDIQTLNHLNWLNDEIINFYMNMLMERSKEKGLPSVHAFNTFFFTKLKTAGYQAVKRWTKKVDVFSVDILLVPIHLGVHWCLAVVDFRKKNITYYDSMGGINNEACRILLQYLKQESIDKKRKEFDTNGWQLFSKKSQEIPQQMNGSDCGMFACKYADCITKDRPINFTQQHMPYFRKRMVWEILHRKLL
# [11] = molecular target: T3, Sentrin-specific protease 1; test: Dose response confirmation of small molecule inhibitors of the catalytic domain of the SUMO protease, SENP1 in a FRET assay.; assay type: functional; settings: read-out: IC50_Mean
# [12] = molecular target: T4, Carboxy-terminal domain RNA polymerase II polypeptide A small phosphatase 1 (Homo sapiens, UniProt Q9GZU7); test: CTDSP1 inhibitors, concentration-response, biochemical, absorbance readout, ultra-high-throughput screen actives (AID 540297); assay type: functional
# T4 sequence (Q9GZU7 whole entry): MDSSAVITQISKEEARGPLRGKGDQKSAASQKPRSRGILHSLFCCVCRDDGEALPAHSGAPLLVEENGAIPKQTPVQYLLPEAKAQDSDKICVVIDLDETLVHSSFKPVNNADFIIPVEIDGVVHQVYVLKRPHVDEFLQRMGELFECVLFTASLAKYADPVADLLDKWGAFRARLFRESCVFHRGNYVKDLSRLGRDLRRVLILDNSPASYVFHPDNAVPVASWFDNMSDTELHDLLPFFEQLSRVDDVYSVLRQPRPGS
# [13] = molecular target: Tyrosine-protein phosphatase non-receptor type 11 (Homo sapiens, UniProt Q06124); test: PTPN11 enzyme inhibitors – biochemical, selectivity assay for STEP inhibitor project, dose response (AID 602367); assay type: functional; settings: read-out: IC50_Mean
# [14] = molecular target: Tyrosine-protein phosphatase non-receptor type 5 (Homo sapiens, UniProt P54829); test: PTPN5 enzyme inhibition – biochemical, fluorescence intensity, uHTS hits, confirmation (AID 602372); assay type: functional; settings: read-out: IC50_Mean
# [15] = molecular target: Dual specificity protein phosphatase 3 (Homo sapiens, UniProt P51452); test: VHR phosphatase inhibition, dose response, selectivity assay for STEP inhibitor project, biochemical (AID 602374); assay type: functional; settings: read-out: IC50_Mean
# Chain of Dual specificity protein phosphatase 3 (P51452 whole entry): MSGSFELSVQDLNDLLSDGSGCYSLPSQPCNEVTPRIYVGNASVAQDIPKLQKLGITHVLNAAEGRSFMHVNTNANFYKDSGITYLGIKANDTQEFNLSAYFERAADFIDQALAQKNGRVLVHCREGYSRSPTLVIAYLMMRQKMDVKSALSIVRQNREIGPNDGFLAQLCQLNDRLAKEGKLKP
# [16] = system: Streptococcus sp. 'group A'; test: Streptococcus pyogenes SK(-)GAS viability under kanamycin – luminescence, BacTiterGlo, confirmation, counter-screen for streptokinase expression inhibitor project, dose response (AID 1900); assay type: functional, organism-based
# Streptokinase A = molecular target: T5, Streptokinase A (Streptococcus pyogenes serotype M1, UniProt P10520); test: viability-normalized secreted streptokinase activity reduction – plasminogen activation absorbance, OD405, dose response (AID 1914); assay type: functional, Streptococcus pyogenes M1 GAS;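 further: secreted streptokinase activity via plasminogen activation per viability signal from cell pellet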
# T5 sequence (P10520 whole entry): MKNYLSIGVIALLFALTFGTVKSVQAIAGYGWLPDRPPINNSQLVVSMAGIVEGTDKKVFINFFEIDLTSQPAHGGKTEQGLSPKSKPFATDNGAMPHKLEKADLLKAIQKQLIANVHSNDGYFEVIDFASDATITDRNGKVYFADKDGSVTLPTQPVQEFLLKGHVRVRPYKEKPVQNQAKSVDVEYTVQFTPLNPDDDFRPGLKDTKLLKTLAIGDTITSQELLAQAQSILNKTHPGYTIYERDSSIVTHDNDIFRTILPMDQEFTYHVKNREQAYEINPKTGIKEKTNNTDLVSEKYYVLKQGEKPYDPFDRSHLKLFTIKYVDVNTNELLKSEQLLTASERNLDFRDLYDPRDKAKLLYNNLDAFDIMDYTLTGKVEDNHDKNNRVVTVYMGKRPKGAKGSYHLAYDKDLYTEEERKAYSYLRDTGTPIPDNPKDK
# [17] = Trypanosoma cruzi growth suppression in host cells – NIH3T3 host cells, beta-gal luminescence, confirmation (AID 2044); assay type: functional, cell-based;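 further: intracellular parasites grown in NIH/3T3 mouse fibroblasts as host cells; luminescent beta-galactosidase reporter signal from transgenic T. cruzi replicating inside host cells; inhibitors lower the luminescence signal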
# [18] = NIH3T3 cell viability loss – ATP luminescence, mouse fibroblasts, counter-screen, dose response (AID 2010); assay type: functional, cell-based;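 further: cells exposed to compound for about 90 hours before reading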
# Streptococcus = test: GAS UMAA2166 growth inhibition – luminescence, BacTiterGlo, counter-screen for streptokinase expression inhibitor project, dose response (AID 1915); assay type: functional, organism-based;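 further: potency for reduction of bacterial viability or growth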
# HEK293 = test: EBV LMP1 TES2 canonical NF-kB signalling blockers – cell-based, HEK293, luciferase, cherry-pick, dose response (AID 588343); assay type: functional; settings: Homo sapiens
# [19] = molecular target: Latent membrane protein 1 (Human herpesvirus 4 (strain B95-8), UniProt P03230); test: LMP1 TES1 pathway selectivity over dsRED control – imaging, HEK293T, dual-color eGFP/dsRED, cherry-picks, selectivity assay for LMP1 NF-kB inhibitor project, dose response (AID 588398); assay type: functional, cell-based
# [20] = molecular target: T6, Apoptotic protease-activating factor 1 (Homo sapiens, UniProt O14727); test: SAR analysis of small molecule Activators of Apaf-1 in a Fluorescent assay.; assay type: functional; settings: read-out: EC50_Mean;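 further: caspase-3 cleavage of fluorogenic Rh110 DEVD substrate downstream of apoptosome activation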
# T6 sequence (O14727 whole entry): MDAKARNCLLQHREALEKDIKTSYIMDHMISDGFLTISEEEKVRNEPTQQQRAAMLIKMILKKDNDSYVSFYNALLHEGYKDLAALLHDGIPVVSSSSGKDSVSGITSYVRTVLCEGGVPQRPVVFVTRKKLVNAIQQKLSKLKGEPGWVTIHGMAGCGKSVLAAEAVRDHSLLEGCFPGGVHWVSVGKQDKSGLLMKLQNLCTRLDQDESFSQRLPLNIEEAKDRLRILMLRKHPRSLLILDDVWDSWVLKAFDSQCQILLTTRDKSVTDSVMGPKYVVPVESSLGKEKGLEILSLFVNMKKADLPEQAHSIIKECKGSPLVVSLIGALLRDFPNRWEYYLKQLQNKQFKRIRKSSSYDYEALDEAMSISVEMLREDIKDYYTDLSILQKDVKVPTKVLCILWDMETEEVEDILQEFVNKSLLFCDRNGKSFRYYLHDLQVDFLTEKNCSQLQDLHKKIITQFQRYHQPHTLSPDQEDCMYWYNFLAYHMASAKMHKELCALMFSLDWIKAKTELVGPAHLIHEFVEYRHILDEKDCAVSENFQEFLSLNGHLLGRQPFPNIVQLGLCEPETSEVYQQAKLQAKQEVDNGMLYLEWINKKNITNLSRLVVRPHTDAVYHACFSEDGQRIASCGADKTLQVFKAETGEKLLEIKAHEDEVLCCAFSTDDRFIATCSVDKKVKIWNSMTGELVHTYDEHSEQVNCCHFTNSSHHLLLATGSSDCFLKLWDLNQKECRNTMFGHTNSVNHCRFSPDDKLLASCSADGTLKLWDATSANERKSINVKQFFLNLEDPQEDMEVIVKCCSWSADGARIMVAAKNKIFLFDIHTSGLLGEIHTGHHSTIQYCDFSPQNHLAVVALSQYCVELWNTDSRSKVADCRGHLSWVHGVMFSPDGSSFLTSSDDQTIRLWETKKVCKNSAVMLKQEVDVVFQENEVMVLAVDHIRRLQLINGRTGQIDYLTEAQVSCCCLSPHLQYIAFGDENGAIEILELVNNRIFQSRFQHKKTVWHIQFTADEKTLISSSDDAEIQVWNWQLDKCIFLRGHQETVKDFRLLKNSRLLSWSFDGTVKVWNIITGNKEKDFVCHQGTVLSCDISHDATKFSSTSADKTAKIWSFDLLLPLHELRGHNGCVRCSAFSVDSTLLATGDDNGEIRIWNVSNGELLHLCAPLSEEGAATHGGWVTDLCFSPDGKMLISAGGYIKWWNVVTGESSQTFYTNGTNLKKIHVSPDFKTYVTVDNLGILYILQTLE
# [21] = molecular target: Cell division cycle 7-related protein kinase (Homo sapiens, UniProt O00311); assay type: functional;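 further: value obtained from a kinome-wide kinase panel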
# Chain of Cell division cycle 7-related protein kinase (O00311 whole entry): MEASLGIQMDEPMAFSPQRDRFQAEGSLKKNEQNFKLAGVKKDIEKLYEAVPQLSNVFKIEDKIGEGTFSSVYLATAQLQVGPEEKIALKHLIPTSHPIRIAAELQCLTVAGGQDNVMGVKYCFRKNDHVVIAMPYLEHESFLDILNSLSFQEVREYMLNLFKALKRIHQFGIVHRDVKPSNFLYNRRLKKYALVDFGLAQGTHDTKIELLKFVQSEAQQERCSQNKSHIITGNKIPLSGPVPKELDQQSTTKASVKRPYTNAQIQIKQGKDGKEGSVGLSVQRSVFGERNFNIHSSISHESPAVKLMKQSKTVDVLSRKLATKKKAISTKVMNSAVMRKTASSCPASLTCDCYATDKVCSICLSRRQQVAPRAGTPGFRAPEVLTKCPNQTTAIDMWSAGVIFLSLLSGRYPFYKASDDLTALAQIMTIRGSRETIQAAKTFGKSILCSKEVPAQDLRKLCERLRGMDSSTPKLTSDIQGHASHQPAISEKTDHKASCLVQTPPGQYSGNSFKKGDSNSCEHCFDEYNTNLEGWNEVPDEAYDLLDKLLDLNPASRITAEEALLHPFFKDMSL
# [22] = molecular target: High affinity nerve growth factor receptor (Homo sapiens, UniProt P04629); assay type: functional;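 further: NTRK1 tested as one member of a kinome-wide profiling panel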
# [23] = molecular target: Glycogen synthase kinase-3 alpha (Homo sapiens, UniProt P49840); assay type: functional;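 further: GSK3A result taken from a broad kinome-wide kinase panel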
# Chain of Glycogen synthase kinase-3 alpha (P49840 whole entry): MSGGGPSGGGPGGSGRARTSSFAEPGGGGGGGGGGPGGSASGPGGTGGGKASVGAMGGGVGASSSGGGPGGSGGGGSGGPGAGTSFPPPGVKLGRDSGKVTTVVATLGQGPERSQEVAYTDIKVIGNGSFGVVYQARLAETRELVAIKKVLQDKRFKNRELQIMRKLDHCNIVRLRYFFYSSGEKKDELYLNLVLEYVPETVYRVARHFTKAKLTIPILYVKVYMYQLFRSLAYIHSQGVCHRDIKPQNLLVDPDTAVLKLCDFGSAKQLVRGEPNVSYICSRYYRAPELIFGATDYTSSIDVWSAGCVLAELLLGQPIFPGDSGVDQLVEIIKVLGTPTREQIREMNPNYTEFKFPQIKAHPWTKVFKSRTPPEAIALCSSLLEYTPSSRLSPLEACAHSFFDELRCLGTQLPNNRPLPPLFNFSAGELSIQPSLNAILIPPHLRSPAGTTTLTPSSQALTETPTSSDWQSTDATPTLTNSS
# [24] = molecular target: Glycogen synthase kinase-3 beta (Homo sapiens, UniProt P49841); assay type: functional;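 further: value comes from a broad kinome profiling panel, with GSK3B as the panel member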
# [25] = molecular target: Serine/threonine-protein kinase MRCK alpha (Homo sapiens, UniProt Q5VT25); assay type: functional
# Chain of Serine/threonine-protein kinase MRCK alpha (Q5VT25 whole entry): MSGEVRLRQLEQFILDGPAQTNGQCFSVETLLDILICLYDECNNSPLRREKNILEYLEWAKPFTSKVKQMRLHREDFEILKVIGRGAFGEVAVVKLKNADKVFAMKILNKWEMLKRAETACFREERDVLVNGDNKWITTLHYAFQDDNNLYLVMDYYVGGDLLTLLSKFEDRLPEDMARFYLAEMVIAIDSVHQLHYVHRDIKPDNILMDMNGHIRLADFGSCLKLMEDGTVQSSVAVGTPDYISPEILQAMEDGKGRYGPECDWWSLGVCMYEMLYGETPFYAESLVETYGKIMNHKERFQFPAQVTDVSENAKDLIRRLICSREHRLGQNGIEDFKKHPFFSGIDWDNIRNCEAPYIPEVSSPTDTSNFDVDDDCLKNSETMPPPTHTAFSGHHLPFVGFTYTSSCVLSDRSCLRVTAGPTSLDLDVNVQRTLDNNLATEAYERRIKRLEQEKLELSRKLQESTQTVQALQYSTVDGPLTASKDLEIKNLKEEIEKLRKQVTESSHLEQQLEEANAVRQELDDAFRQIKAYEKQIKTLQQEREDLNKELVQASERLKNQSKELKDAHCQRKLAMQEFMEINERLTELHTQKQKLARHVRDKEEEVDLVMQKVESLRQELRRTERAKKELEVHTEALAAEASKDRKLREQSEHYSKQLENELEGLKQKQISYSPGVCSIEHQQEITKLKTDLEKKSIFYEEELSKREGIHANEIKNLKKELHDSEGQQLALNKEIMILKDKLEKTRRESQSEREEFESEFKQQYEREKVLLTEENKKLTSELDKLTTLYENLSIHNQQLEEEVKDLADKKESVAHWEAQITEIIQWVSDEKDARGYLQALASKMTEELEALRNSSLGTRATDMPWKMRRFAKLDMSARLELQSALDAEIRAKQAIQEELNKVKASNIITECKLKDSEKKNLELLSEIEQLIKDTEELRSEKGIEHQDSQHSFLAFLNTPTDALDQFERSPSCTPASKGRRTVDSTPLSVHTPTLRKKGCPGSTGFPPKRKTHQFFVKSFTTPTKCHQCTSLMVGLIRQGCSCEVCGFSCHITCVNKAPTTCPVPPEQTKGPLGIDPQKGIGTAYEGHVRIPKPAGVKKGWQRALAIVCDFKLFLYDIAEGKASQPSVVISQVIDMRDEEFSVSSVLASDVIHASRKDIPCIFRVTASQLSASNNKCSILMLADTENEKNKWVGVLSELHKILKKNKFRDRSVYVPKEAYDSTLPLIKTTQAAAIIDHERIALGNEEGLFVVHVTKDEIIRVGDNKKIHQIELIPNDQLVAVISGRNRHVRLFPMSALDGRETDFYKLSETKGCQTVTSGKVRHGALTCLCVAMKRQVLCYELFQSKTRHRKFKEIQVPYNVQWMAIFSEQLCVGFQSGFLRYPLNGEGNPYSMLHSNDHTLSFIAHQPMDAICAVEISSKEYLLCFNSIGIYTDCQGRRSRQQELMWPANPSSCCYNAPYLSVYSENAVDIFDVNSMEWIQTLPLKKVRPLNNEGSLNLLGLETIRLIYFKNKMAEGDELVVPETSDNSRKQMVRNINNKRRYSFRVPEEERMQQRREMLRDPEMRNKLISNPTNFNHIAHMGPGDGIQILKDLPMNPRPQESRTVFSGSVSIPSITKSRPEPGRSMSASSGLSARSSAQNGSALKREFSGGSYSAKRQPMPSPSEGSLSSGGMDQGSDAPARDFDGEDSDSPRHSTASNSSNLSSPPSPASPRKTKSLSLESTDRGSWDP
# [26] = activation of miR-122 Renilla sensor silencing – cell-based, Huh7 psiCHECK-miR122, Renilla luciferase, cherry-picked, dose response (AID 651956); assay type: functional;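 further: huh7 hepatoma cells stably carrying a psiCHECK-2 miR-122 sensor plasmid; renilla luciferase signal reporting endogenous miR-122 activity after 48 h compound exposure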
# Chain of Potassium voltage-gated channel subfamily KQT member 2 (O88943 whole entry, the tested form may be a part): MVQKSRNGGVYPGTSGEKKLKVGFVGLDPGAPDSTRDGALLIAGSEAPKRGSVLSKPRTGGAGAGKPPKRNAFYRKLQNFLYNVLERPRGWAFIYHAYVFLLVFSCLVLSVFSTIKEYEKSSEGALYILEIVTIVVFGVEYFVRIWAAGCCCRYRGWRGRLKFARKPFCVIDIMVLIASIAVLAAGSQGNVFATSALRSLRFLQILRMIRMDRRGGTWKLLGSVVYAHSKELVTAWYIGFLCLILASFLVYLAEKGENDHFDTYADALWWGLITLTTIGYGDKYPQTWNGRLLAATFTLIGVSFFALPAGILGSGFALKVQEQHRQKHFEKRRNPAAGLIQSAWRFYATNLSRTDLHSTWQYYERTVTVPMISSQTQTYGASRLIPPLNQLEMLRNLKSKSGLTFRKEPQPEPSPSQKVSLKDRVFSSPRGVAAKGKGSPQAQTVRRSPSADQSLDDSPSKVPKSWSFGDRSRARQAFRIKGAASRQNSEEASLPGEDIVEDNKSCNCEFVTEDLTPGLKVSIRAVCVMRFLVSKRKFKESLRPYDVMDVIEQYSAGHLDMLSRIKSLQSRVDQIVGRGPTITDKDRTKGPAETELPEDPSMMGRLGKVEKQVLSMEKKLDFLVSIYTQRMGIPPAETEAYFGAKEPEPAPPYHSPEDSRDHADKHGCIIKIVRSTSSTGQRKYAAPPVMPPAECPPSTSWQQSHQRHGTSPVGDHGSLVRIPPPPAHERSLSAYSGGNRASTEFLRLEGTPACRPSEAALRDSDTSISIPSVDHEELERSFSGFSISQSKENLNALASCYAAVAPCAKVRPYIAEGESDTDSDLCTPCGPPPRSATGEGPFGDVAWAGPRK
smiles,measurement,setting,value
Cc1csc2nc(CSc3ccc(Cl)cc3)cn12,IC50,[1],4.2 µM (active)
O=C1c2cccnc2C(=O)N1Cc1ccc(S(=O)(=O)NCc2ccco2)s1,AC50,[2],98.4 µM (active)
COc1cc(/C=C/C(=O)c2ccc(Cl)s2)cc(OC)c1O,IC50,[3],6.66 µM (active)
Cc1cccc(N2C(=O)c3cccc4c(N)ccc(c34)C2=O)c1,IC50,Beta-lactamase [4],21.4 µM (inactive)
same,IC50,Beta-lactamase [5],10.1 µM (inactive)
same,AC50,ORF 73,5.93 µM (active)
same,AC50,[6],1.79 µM (active)
same,AC50,Keap1/Nrf2,1.82 µM (active)
CCOC(=O)c1ccccc1NC(=O)c1ccc2c(SCC(=O)O)c3c(nc2c1)CCCC3,IC50,[7],5.7 µM (active)
same,IC50,[8],25 µM (active)
same,AC50,[9],> 30 µM (inactive)
O=C1CC[C@@H]2C[C@@]3(C[C@@H]4CCN1[C@H]24)Nc1cc([N+](=O)[O-])ccc1N=C3NCc1ccccc1,IC50,[10],18.3 µM (active)
same,IC50,[11],9.31 µM (active)
Cc1c(CC(=O)O)c(=O)oc2c(C)c(OCc3ccccc3Br)ccc12,IC50,[12],3.92 µM (active)
same,IC50,[13],7.43 µM (active)
same,IC50,[14],13.4 µM (active)
same,IC50,[15],6.67 µM (active)
CCCc1ccc(-c2cc(C(=O)N/N=C/c3ccc([N+](=O)[O-])o3)c3ccccc3n2)cc1,EC50,[16],2.75 µM (active)
same,EC50,Streptokinase A,> 150 µM (not active)
same,EC50,[17],0.194 µM (active)
same,EC50,[18],8.91 µM (active)
same,EC50,Streptococcus,2.59 µM (active)
same,AC50,HEK293,2.89 µM (active)
same,AC50,[19],112 µM (active)
COC(=O)[C@@H]1COC(c2ccc(OC)c(C(F)(F)F)c2)=N1,EC50,[20],> 100 µM (inactive)
NC(=O)c1ccc(-c2c[nH]c3nc(N)nc(NCc4c(F)cccc4F)c23)cc1,Ki,[21],0.1 µM (active)
same,Ki,[22],2.51 µM (active)
CC(=O)Nc1nonc1-n1nnc(C(=O)NN=Cc2cccs2)c1-c1ccccc1,Ki,[23],3.16 µM (active)
same,Ki,[24],6.31 µM (active)
same,Ki,[25],10 µM (active)
CN1C(=O)c2cc(NC(=O)c3cccs3)ccc2OC[C@H]2O[C@H](CC(=O)NCCN3CCCCC3)CC[C@@H]21,AC50,[26],43.3 µM (active)
